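Following 48 hours of exposure in 96-well plates, responses at five concentrations were used to interpolate endpoints linearly. GI50 is the concentration that inhibits growth by half.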 Activity calls are given as the source filed them. Cut-off read from the data, not from the text of the source: active = GI50 up to about 1.1 µM and inactive = higher.
Tests used:
Assay in all cases: NCI anticancer screen, dose series, 48 h
[1] = tested on: CCRF-CEM
[2] = tested on: KM12
[3] = tested on: HL-60
[4] = tested on: MDA-MB-435
[5] = tested on: UACC-257
[6] = tested on: HCT-15
[7] = tested on: Hs-578T
[8] = tested on: SK-OV-3
[9] = tested on: Malme-3M
[10] = tested on: TK-10
[11] = tested on: MCF7
[12] = tested on: IGROV-1
[13] = tested on: ACHN
[14] = tested on: HOP-92
[15] = tested on: NCI/ADR-RES
[16] = tested on: MOLT-4
[17] = tested on: SNB-75
[18] = tested on: OVCAR-4
[19] = tested on: 786-0
[20] = tested on: HT-29
[21] = tested on: RXF 393
[22] = tested on: SR
[23] = tested on: SK-MEL-28
[24] = tested on: K562
[25] = tested on: NCI-H460
[26] = tested on: CAKI-1
[27] = tested on: SK-MEL-2
[28] = tested on: RPMI-8226
[29] = tested on: MDA-N
[30] = tested on: MDA-MB-231
[31] = tested on: HCC 2998
[32] = tested on: OVCAR-5
[33] = tested on: NCI-H226
[34] = tested on: NCI-H23
[35] = tested on: SF-295
[36] = tested on: A549
[37] = tested on: SW-620
[38] = tested on: OVCAR-3
[39] = tested on: SF-539
[40] = tested on: EKVX
[41] = tested on: M14
[42] = tested on: SK-MEL-5
[43] = tested on: SNB-19
[44] = tested on: SF-268
[45] = tested on: U-251
[46] = tested on: DU-145
[47] = tested on: PC-3
[48] = tested on: UO-31
[49] = tested on: HOP-62
[50] = tested on: OVCAR-8
[51] = tested on: LOX IMVI
[52] = tested on: T47D
[53] = tested on: UACC-62
[54] = tested on: SN12C
[55] = tested on: HCT-116
[56] = tested on: COLO 205
[57] = tested on: A498
[58] = tested on: NCI-H522

SC1=C2CCCCCC2=NC2(CCCCCC2)S1
GI50 [1]: 33.6 µM (inactive) | GI50 [2]: 18.4 µM (inactive) | GI50 [3]: 12.1 µM (inactive) | GI50 [4]: 30.5 µM (inactive) | GI50 [5]: 11 µM (inactive) | GI50 [6]: 37.1 µM | GI50 [7]: 11.6 µM (inactive) | GI50 [8]: 62.8 µM (inactive) | GI50 [9]: 22 µM (inactive) | GI50 [10]: 24.7 µM (inactive) | GI50 [11]: 19 µM (inactive) | GI50 [12]: 44.1 µM (inactive) | GI50 [13]: 13 µM (inactive) | GI50 [14]: 21.1 µM (inactive) | GI50 [15]: 26.5 µM (inactive) | GI50 [16]: 19 µM (inactive) | GI50 [17]: 19.2 µM (inactive) | GI50 [18]: 16.9 µM (inactive) | GI50 [19]: 33.1 µM (inactive) | GI50 [20]: 24.9 µM (inactive) | GI50 [21]: 32.6 µM (inactive) | GI50 [22]: 15.6 µM (inactive) | GI50 [23]: 72.9 µM (inactive) | GI50 [24]: 12.2 µM (inactive) | GI50 [25]: 17.3 µM (inactive) | GI50 [26]: 31.5 µM (inactive) | GI50 [27]: 6.3 µM (inactive) | GI50 [28]: 18.5 µM (inactive) | GI50 [29]: 33.4 µM (inactive) | GI50 [30]: 36.6 µM (inactive) | GI50 [31]: 23.3 µM (inactive) | GI50 [32]: 30.5 µM (inactive) | GI50 [33]: 12.4 µM (inactive) | GI50 [34]: 9.12 µM (inactive) | GI50 [35]: 23.6 µM (inactive) | GI50 [36]: 24.5 µM (inactive) | GI50 [37]: 32.3 µM (inactive) | GI50 [38]: 20.5 µM (inactive) | GI50 [39]: 35.1 µM (inactive) | GI50 [40]: 5.62 µM (inactive) | GI50 [41]: 35.2 µM (inactive) | GI50 [42]: 11.2 µM (inactive) | GI50 [43]: 25.8 µM (inactive) | GI50 [44]: 41.7 µM (inactive) | GI50 [45]: 32 µM (inactive) | GI50 [46]: 30.8 µM (inactive) | GI50 [47]: 27.5 µM (inactive) | GI50 [48]: 11.6 µM (inactive) | GI50 [49]: 31.7 µM (inactive) | GI50 [50]: 28.3 µM (inactive) | GI50 [51]: 29.4 µM (inactive) | GI50 [52]: 17.4 µM (inactive) | GI50 [53]: 26.8 µM (inactive) | GI50 [54]: 37.3 µM (inactive) | GI50 [55]: 26.9 µM (inactive) | GI50 [56]: 17.7 µM (inactive)

CCOC(=O)CNC(=O)C(C)NC(=O)C(NC(=O)CC(c1ncc[nH]1)c1ncc[nH]1)C(C)CC (centres undefined)
GI50 [1]: > 100 µM (inactive) | GI50 [2]: > 100 µM (inactive) | GI50 [3]: > 100 µM (inactive) | GI50 [4]: > 100 µM (inactive) | GI50 [5]: > 100 µM (inactive) | GI50 [6]: > 100 µM | GI50 [7]: > 100 µM (inactive) | GI50 [8]: > 100 µM (inactive) | GI50 [9]: > 100 µM (inactive) | GI50 [10]: > 100 µM (inactive) | GI50 [11]: > 100 µM (inactive) | GI50 [12]: > 100 µM (inactive) | GI50 [13]: > 100 µM (inactive) | GI50 [14]: > 100 µM (inactive) | GI50 [15]: > 100 µM (inactive) | GI50 [16]: > 100 µM (inactive) | GI50 [17]: > 100 µM (inactive) | GI50 [18]: 63.7 µM (inactive) | GI50 [19]: > 100 µM (inactive) | GI50 [57]: > 100 µM (inactive) | GI50 [22]: > 100 µM (inactive) | GI50 [23]: > 100 µM (inactive) | GI50 [24]: > 100 µM (inactive) | GI50 [25]: > 100 µM (inactive) | GI50 [26]: > 100 µM (inactive) | GI50 [27]: > 100 µM (inactive) | GI50 [28]: > 100 µM (inactive) | GI50 [29]: > 100 µM (inactive) | GI50 [30]: > 100 µM (inactive) | GI50 [31]: > 100 µM (inactive) | GI50 [32]: > 100 µM (inactive) | GI50 [34]: > 100 µM (inactive) | GI50 [35]: > 100 µM (inactive) | GI50 [36]: > 100 µM (inactive) | GI50 [37]: > 100 µM (inactive) | GI50 [38]: > 100 µM (inactive) | GI50 [39]: > 100 µM (inactive) | GI50 [40]: > 100 µM (inactive) | GI50 [41]: 84.9 µM (inactive) | GI50 [43]: > 100 µM (inactive) | GI50 [44]: > 100 µM (inactive) | GI50 [45]: > 100 µM (inactive) | GI50 [58]: > 100 µM (inactive) | GI50 [46]: > 100 µM (inactive) | GI50 [48]: > 100 µM (inactive) | GI50 [50]: > 100 µM (inactive) | GI50 [51]: > 100 µM (inactive) | GI50 [52]: > 100 µM (inactive) | GI50 [53]: > 100 µM (inactive) | GI50 [54]: > 100 µM (inactive) | GI50 [55]: > 100 µM (inactive) | GI50 [56]: > 100 µM (inactive)

O=C(C/C=C/c1ccccc1)c1ccccc1
GI50 [1]: 22.2 µM (inactive) | GI50 [2]: 11.1 µM (inactive) | GI50 [3]: 16.1 µM (inactive) | GI50 [4]: 18 µM (inactive) | GI50 [5]: 21.9 µM (inactive) | GI50 [6]: 18.8 µM | GI50 [7]: 21.8 µM (inactive) | GI50 [8]: 49.5 µM (inactive) | GI50 [10]: 23.2 µM (inactive) | GI50 [11]: 15 µM (inactive) | GI50 [12]: 23.5 µM (inactive) | GI50 [13]: 16.6 µM (inactive) | GI50 [14]: 29 µM (inactive) | GI50 [15]: 15.3 µM (inactive) | GI50 [16]: 20.8 µM (inactive) | GI50 [17]: 20.6 µM (inactive) | GI50 [19]: 21.6 µM (inactive) | GI50 [20]: 18.2 µM (inactive) | GI50 [57]: 15.7 µM (inactive) | GI50 [21]: 15.8 µM (inactive) | GI50 [22]: 12.4 µM (inactive) | GI50 [23]: 27.2 µM (inactive) | GI50 [25]: 19.9 µM (inactive) | GI50 [26]: 17 µM (inactive) | GI50 [28]: 28.2 µM (inactive) | GI50 [29]: 19.8 µM (inactive) | GI50 [31]: 18.3 µM (inactive) | GI50 [32]: 28.6 µM (inactive) | GI50 [33]: 29.5 µM (inactive) | GI50 [34]: 15.1 µM (inactive) | GI50 [35]: 44.4 µM (inactive) | GI50 [36]: 10.8 µM (inactive) | GI50 [37]: 31.2 µM (inactive) | GI50 [38]: 41.6 µM (inactive) | GI50 [39]: 25 µM (inactive) | GI50 [40]: 35.5 µM (inactive) | GI50 [41]: 16.2 µM (inactive) | GI50 [42]: 19.5 µM (inactive) | GI50 [44]: 20.7 µM (inactive) | GI50 [45]: 14.6 µM (inactive) | GI50 [58]: 16.9 µM (inactive) | GI50 [46]: 16 µM (inactive) | GI50 [48]: 14.1 µM (inactive) | GI50 [49]: 26.9 µM (inactive) | GI50 [50]: 15.7 µM (inactive) | GI50 [51]: 12 µM (inactive) | GI50 [52]: 16.9 µM (inactive) | GI50 [53]: 12.6 µM (inactive) | GI50 [54]: 24.3 µM (inactive) | GI50 [55]: 17.4 µM (inactive) | GI50 [56]: 22.5 µM (inactive)

From ChEMBL document CHEMBL1201862, “PubChem BioAssay data set” (2004)
